Measurements taken from publication PMC12538275, “Fat or flat? The impact of dipole moment vectors on non-covalent interactions between aromatic tags and macromolecules” (Inorganic Chemistry Frontiers, 2025).

What was measured:
[1] = target: SmCB1 (Schistosoma mansoni, UniProt Q8MNY2, T185A/T300A); experiment: biochemical; settings: for Ki SmCB1: kinetic activity assay, triplicate, pH 5.5, 37 °C
Text: (§1) Enzymatic activity was monitored either fluorometrically with peptide–AMC substrates, which release 7-amino-4-methylcoumarin (AMC) as a fluorescent product, or spectrophotometrically with peptide–pNA substrates, which liberate p-nitroaniline (pNA). Reaction rates were obtained from the slopes of the linear progress curves and expressed as relative fluorescence units per second (RFU s^−1) or as absorbance units per second (AU s^−1). […] The standard errors of measurements refer to the non-linear regression analysis.
(§2) A non-glycosylated mutant of the SmCB1 zymogen was expressed in the yeast Pichia pastoris, activated by S. mansoni legumain and purified as described previously.[25,43,58] Kinetic measurements were performed in triplicate in 96-well microplates (100 μL assay volume) at 37 °C. […] Substrate hydrolysis was measured fluorometrically in an Infinite M1000 microplate reader (Tecan) at excitation and emission wavelengths of 360 and 465 nm, respectively. Inhibition assays for human cathepsins and cruzain are described in Supplemental Experimental Procedures.

[2] = target: T1, human cathepsin B (Homo sapiens, UniProt P07858); experiment: Cathepsin B inhibition assay with chromogenic substrate Cbz-Arg-Arg-pNA; format: biochemical; settings: kinetic activity assay; for Ki: read-out: Ki Cat B
T1 construct: purchased Calbiochem
Text: as §1
(§3) Enzymatic Assay Materials
(§4) Human cathepsin B was purchased from Calbiochem, and human cathepsins K, L, and S from Enzo. […]
(§5) Stock solutions of the […]
inhibitors and substrates were prepared in DMSO.
Cathepsin B Inhibition Assay
Kinetic measurements were performed in duplicate in cuvettes (1 mL assay volume) at 37 °C, as described.18-20 Human cathepsin B was activated by a 1:500 dilution with assay buffer (100 mM sodium phosphate, pH 6.0, 100 mM NaCl, 5 mM EDTA, 0.01% Brij 35) containing 5 mM DTT and then incubated at 37 °C for 30 min.
Into a cuvette containing 960 µL assay buffer, 5 µL of the chromogenic substrate Cbz-Arg-Arg-pNA, DMSO and inhibitor solution (15 µL) were pipetted. After addition of cathepsin B (20 µL), substrate hydrolysis was measured spectrophotometrically in a VARIAN/Bio-50/100 photometer at 405 nm for 20 min. […]

[3] = tested on: newly transformed schistosomula (NTS) of S. mansoni; experiment: Phenotypic assay with newly transformed schistosomula (NTS); format: cell-based, Schistosoma mansoni; settings: for Severity score: scale 0 (no effect) to 4 (most severe); for anti-schistosomal effect against NTS (in words): 1 and 10 μM, three days
Experimental: Newly transformed schistosomula (NTS) of S. mansoni were prepared by mechanically transforming infective larvae (cercariae) as described previously.[47,57] NTS (200–300 parasites) were incubated in flat-bottomed 96-well plates in 200 μL of Basch medium 169[60] containing 5% FBS (ThermoFisher Scientific), 100 U mL^−1 penicillin and 100 μg mL^−1 streptomycin (ThermoFisher Scientific), at 5% CO2 and 37 °C.[61,62] Inhibitors were added at final concentration of 1 or 10 μM,[43,47] and changes in phenotype were observed every 24 h for up to 72 h. A constrained nomenclature of ‘descriptors’[49,57] is used to record the multiple and dynamic changes in movement, shape and translucence that the schistosome parasite is capable of (Fig. S1). These descriptors are then converted into an ordinal ‘severity score’ system from 0 (no effect) to 4 (maximum effect), which allows for the relative comparison of compound effects, as described previously.[63]

[4] = design: method as in doi:10.1135/cccc20011375; settings: cited from earlier work
[5] = tested on: SmCB1; experiment: biochemical; settings: ratio of Ki values
Text: as §1, §2

[6] = target: T2, cruzain (Trypanosoma cruzi, UniProt P25779); experiment: Cruzain inhibition assay; format: biochemical; settings: duplicate measurements
T2 construct: Recombinant cruzain, consisting of the catalytic domain without the C-terminal extension; made in house
T2 sequence (P25779 123-337 limits assumed): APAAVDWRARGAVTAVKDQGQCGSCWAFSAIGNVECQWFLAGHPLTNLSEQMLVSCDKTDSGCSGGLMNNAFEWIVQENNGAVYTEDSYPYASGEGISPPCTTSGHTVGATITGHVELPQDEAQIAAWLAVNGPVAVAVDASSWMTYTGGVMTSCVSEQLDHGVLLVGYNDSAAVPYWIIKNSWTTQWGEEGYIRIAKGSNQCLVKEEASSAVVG
Text: as §1
Enzymatic Assay Materials […]
Recombinant cruzain, consisting of the catalytic domain without the C-terminal extension, was expressed and purified as described previously.16,17 All substrates were purchased from Bachem. Stock solutions of the inhibitors and substrates were prepared in DMSO. […]
Kinetic measurements were performed in duplicate with a fluorometric assay (Biotek SynergyTM HT) using Corning 96-well black microplates (200 µL assay volume) at 25 °C. Recombinant cruzain was incubated in 100 mM sodium acetate, pH 5.5, 5 mM DTT, 0.01 % Triton X-100 for 20 min, followed by an additional 2 min incubation with inhibitors before the reaction was started by the addition of the fluorogenic substrate Cbz-Phe-Arg-AMC. Substrate hydrolysis was measured for 5 min fluorometrically at excitation and emission wavelengths of 360 and 460 nm, respectively. […]

[7] = target: T3, human cathepsin K (Homo sapiens, UniProt P43235); experiment: Cathepsin K inhibition assay; format: biochemical; settings: duplicate measurements; read-out: Ki cat K
T3 construct: purchased Enzo
T3 sequence (P43235 115-329): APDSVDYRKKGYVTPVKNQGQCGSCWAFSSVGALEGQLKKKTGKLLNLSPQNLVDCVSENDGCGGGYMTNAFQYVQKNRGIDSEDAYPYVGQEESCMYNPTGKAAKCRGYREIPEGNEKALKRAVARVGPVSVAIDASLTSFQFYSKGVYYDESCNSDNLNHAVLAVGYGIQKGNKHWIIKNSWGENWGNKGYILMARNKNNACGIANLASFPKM
Text: as §1, §3, §4, §5
inhibitors and substrates were prepared in DMSO. […]
Cathepsin K Inhibition Assay
Kinetic measurements were performed in duplicate in 96-well microplates (100 µL assay volume) at 25 °C, as described.18-20 Human recombinant cathepsin K was activated by a 1:100 dilution with assay buffer (100 mM sodium citrate, pH 5.0, 100 mM NaCl, 1 mM EDTA, 0.01% CHAPS) containing 5 mM DTT, and then incubated at 37 °C for 30 min. […] After addition of cathepsin K (2 µL), substrate hydrolysis was measured for 20 min fluorometrically in a FLUOSTAR Optima plate reader at excitation and emission wavelengths of 360 and 440 nm, respectively. […]

[8] = target: T4, human cathepsin L (Homo sapiens, UniProt P07711); experiment: Cathepsin L inhibition assay; format: biochemical; settings: duplicate measurements; read-out: Ki cat L
T4 construct: Human isolated cathepsin L; purchased Enzo
T4 sequence (P07711 114-333): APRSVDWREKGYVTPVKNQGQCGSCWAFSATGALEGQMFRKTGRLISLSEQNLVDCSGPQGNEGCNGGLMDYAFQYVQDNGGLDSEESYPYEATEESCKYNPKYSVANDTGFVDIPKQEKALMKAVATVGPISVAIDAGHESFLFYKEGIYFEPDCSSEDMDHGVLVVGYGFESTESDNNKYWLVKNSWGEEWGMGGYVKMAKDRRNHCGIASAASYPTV
Experimental: Cathepsin L Inhibition Assay
Kinetic measurements were performed in duplicate in cuvettes (1 mL assay volume) at 37 °C, as described.18-20 Human isolated cathepsin L was activated by a 1:100 dilution with assay buffer (100 mM sodium phosphate buffer, pH 6.0, 100 mM NaCl, 5 mM EDTA, 0.01% Brij 35) containing 5 mM DTT, and then incubated at 37 °C for 30 min. Into a cuvette containing 940 µL assay buffer, 10 µL of the chromogenic substrate Cbz-Phe-Arg-pNA, DMSO and inhibitor solution (10 µL) were pipetted. After the addition of cathepsin L (40 µL), substrate hydrolysis was measured for 20 min spectrophotometrically in a VARIAN/Bio-50/100 photometer at 405 nm. […]
Arg-AMC, cathepsin S and DMSO were 40 µM (= 0.74 × Km), 42 ng mL-1 and 2%, respectively. […]

[9] = target: T5, human cathepsin S (Homo sapiens, UniProt P25774); experiment: Cathepsin S inhibition assay; format: biochemical; settings: duplicate measurements; read-out: Ki cat S
T5 construct: purchased Enzo
T5 sequence (P25774 115-331): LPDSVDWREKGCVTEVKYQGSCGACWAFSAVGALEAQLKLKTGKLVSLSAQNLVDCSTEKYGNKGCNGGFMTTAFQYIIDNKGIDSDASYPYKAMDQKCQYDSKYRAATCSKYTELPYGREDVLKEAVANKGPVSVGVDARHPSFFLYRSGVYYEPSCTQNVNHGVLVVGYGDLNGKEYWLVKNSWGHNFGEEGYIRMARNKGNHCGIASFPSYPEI
Experimental: Cathepsin S Inhibition Assay
Kinetic measurements were performed in duplicate in 96-well microplates (100 µL assay volume) at 25 °C, as described.18-20 Human recombinant cathepsin S was activated by 1:100 dilution with assay buffer (100 mM sodium citrate, pH 6.0 containing 50 mM NaCl, 2 mM EDTA, 0.01% Triton X-100) containing 5 mM DTT, and then incubated at 37 °C for 60 min. Into a well containing 184 µL assay buffer, 0.8 µL of the fluorogenic substrate Cbz-Phe-Arg-AMC, DMSO and inhibitor solution (3.2 µL) were pipetted. After addition of cathepsin S (12 µL), substrate hydrolysis was measured for 20 min fluorometrically on a FLUOSTAR Optima plate reader at excitation and emission wavelengths of 360 and 440 nm, respectively. The final concentrations of Cbz-Phe-Arg-AMC, cathepsin S and DMSO were 40 µM (= 0.74 × Km), 42 ng mL-1 and 2%, respectively. […]

Molecule | Ki SmCB1 [1] | Ki Cat B [2] | Ki [2] [nM] | Severity score ([3]; 1 μM, 24 h) | Severity score ([3]; 1 μM, 48 h) | Severity score ([3]; 1 μM, 72 h) | Severity score ([3]; 10 μM, 24 h) | Severity score ([3]; 10 μM, 48 h) | Severity score ([3]; 10 μM, 72 h) | anti-schistosomal effect against NTS (in words) [3] | dipole moment [4] [D] | Ki [1] [nM] | Selectivity Ki (cat B)/Ki (SmCB1) [5] | Ki [6] [nM] | Ki [7] [nM] | Ki [8] [nM] | Ki [9] [nM]
9-SH-closo-1,2-C2B10H11 [compound 2] | inactive | weak inhibition | 43800 ± 5600 | 0 | 0 | 0 | 0 | 0 | 0 | ineffective |  |  |  |  |  |  | 
9-phenyl ortho-carborane |  |  |  |  |  |  |  |  |  |  | 5.0 |  |  |  |  |  | 
N#CC1(NC(=O)[C@H](Cc2cccc(Cl)c2)NC(=O)CSc2ccccc2)CC1 [5a] |  |  | 6800 ± 500 | 0 | 0 | 0 | 0 | 0 | 0 | ineffective |  | 14300 ± 2400 | 0.5 | 460 ± 10 | 1410 ± 260 | 370 ± 20 | 210 ± 30
CC(C)(C)OC(=O)N[C@@H](Cc1cccc(Cl)c1)C(=O)NC1(C#N)CC1 [compound 4] |  |  | 15500 ± 1700 | 0 | 0 | 0 | 0 | 0 | 0 | ineffective |  | 27100 ± 3200 |  | 750 ± 20 | 1850 ± 230 | 250 ± 20 | 96 ± 9
closo-1,2-C2B10H12 [compound 1, reference compound] | inactive | inactive | > 100000 | 0 | 0 | 0 | 0 | 0 | 0 | ineffective | 4.5 |  |  |  |  |  | 
